Assays:
Format in all cases: cell-based
[1] = system: P. aeruginosa (ATCC 27853); assay: Simultaneous antibiotic susceptibility (DHR 123) and species identification (anti-P. aeruginosa antibody) by flow cytometry; settings: dihydrorhodamine 123 5 μM; 3 hour and 4 hour timepoints
Description: Cultures of P. aeruginosa (ATCC 27853) were inoculated in 3 ml Mueller-Hinton broth (MHB) with an OD600 of 0.06. After 2 hours at 37 C, the cultures were at OD600 of 0.150. At time =0 hours, a test antibiotic (ciprofloxacin) or vehicle (DMSO) was added to each culture along with dihydrorhodamine 123 at 5 μM final concentration. At 3 hour and 4 hour timepoints,1 mL of the P. aeruginosa cells were centrifuged and resuspended in FACS buffer with a primary anti-Pseudomonas antibody (rabbit polyclonal Anti-Pseudomonas antibody (ab68538, abcam, Cambridge, Mass.)), and incubated for 15 minutes. The tubes were then centrifuged and resuspended in FACS buffer with a secondary antibody (goat anti-rabbit labeled with Cy7 dye) for another 15 minutes. The samples were then run directly on a FACScaliber flow cytometer for analysis.

[2] = system: P. aeruginosa (ATCC 27853); assay: MIC of ciprofloxacin against P. aeruginosa; settings: Pseudomonas aeruginosa, ATCC27853
E. coli (ATCC 25922) = assay: MIC of norfloxacin against E. coli; settings: Escherichia coli, ATCC25922

MIC [2] [µg/mL] | MIC (E. coli (ATCC 25922)) [µg/mL] | Structure (SMILES) | response of DHR 123 labeling to antibiotic [1]
0.25 | – | O=C(O)c1cn(C2CC2)c2cc(N3CCNCC3)c(F)cc2c1=O [ciprofloxacin] | dose-dependent response
– | 0.064 | CCn1cc(C(=O)O)c(=O)c2cc(F)c(N3CCNCC3)cc21 [norfloxacin] | –

— patent US20160257986A1, “Bacterial Diagnosis” (SRI INTERNATIONAL, priority 2013, published 2016)
